For data set [1], the target named is T1, human IL-23R (Homo sapiens, UniProt Q5VWK5).
T1 sequence (Q5VWK5 22-629): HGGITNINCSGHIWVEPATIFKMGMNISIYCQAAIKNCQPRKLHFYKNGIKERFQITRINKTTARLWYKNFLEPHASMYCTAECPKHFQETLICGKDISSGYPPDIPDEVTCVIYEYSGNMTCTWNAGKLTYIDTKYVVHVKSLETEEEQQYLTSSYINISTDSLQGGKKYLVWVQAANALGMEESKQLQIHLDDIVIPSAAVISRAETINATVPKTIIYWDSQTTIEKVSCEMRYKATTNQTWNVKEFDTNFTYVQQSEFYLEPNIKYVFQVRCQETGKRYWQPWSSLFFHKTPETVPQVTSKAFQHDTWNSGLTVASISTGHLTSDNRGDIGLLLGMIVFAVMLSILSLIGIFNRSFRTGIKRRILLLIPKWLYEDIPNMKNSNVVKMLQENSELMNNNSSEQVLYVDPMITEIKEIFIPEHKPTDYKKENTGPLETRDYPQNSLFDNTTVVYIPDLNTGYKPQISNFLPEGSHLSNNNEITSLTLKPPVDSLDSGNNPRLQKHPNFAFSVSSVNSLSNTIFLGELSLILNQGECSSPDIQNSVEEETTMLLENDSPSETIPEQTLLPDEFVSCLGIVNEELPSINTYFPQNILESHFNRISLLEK
The experiment in a line: biochemical. As to conditions: for Emax: read-out: % displacement (hIL-23R binding). An excerpt:
The compound binding affinity for IL-23R was estimated by the ability of compounds to displace a fluorophore-labelled reference compound from the human IL-23R. The assay principle relies on Bioluminescence Resonance Energy Transfer (BRET) between a fluorophore-labelled reference compound binding to the IL-23R part of a fusion protein consisting of the IL-23R fused to a Nanoluc luciferase enzyme (Nanoluc). The Nanoluc is placed in the N-terminus in close proximity to the binding domain of the ligand. Upon close proximity between the fluorophore of the fluorophore-labelled compound and the Nanoluc of the fusion protein, bioluminescence energy generated from conversion of a Nanoluc substrate, is transferred to the fluorophore resulting in an increase in BRET. In presence of an unlabelled compound, the unlabelled compound displaces the fluorophore-labelled peptide from its binding site resulting in a decrease in BRET. The concentration for which half of the fluorophore-labelled peptide is displaced by the unlabelled compound depends on the affinity of the compound for the IL-23R, and is termed the IC50 concentration.
The plasmid also contained a gene to confer resistance for the antibiotic hygromycin. A cell line stably expressing the Nluc-IL23R fusion protein was generated by transfection of HEK293 cells with the expression plasmid and selected with hygromycin for 3 weeks in Growth medium consisting of DMEM w/ Glutamax-I containing, 10% V/V FBS, 1% V/V P/S, 1 mM Sodium Pyruvate, and 1X NEAA, and 0.3 mg/mL hygromycin. The remaining cells were propagated and considered a stable expressing Nluc-IL23R fusion protein pool clone.
Cells expressing the Nluc-IL23R fusion protein were expanded in Growth medium and membranes prepared by homogenization of a cell pellet from 18 T175 flasks (4 °C in subsequent steps). The cell pellet was lysed Tris 10 mM, 7.5, 1 mM EDTA and protease inhibitors (Complete, Roche) and homogenized using a 15 mL glass-dounce by 50 strokes. The homogenate was spun at spin @1500 rpm for 10 min, the supernatant transferred to SV-34 tubes and spun at 40000g for 20 min at 4 °C to pellet the crude membranes. The supernatant was then removed, the pellet resuspended in 5 mL buffer containing 50 mM HEPES pH 7.4, 5 mM EGTA, and 5 mM MgCl2, and homogenized. Aliquots of the resuspended and homogenized membranes containing the Nluc-IL23R fusion protein were stored at -80 °C until use.
The plate was sealed with light impermeable plate seals, and incubated on an orbital shaker 400 rpm for 2 hours at room temperature. To determine the BRET ratio, the plate seal was removed and 25 µL of the Nanoluc substrate (Promega N1572) diluted 1:500 was added to each well and incubated for 1-2 minutes on an orbital shaker at 400 rpm. […] The BRET ratio was calculated as the fluorescence from the TAMRA/nanoluc bioluminescence.
Compound potency (IC50) and maximal displacement (% displacement) were estimated by computer-aided curve fitting using a 4-parameter logistic (4PL) non-linear model. […]
In this application, the inventors provide the data as IC50 values.

Data set [2] can be described thus: Peptide stability in simulated intestinal fluid (SIF). In kind it is in vitro ADME. The conditions noted are these: 37 °C, pH 6.8, porcine pancreatin 10 g/L, 10 µM; for remaining at 4 h, 10 µM / remaining at 1 h, 10 µM: pig, simulated intestinal fluid (SIF) with porcine pancreatin; for remaining at 4 h, 10 µM: read-out: SIF (% remaining 4 h). Here is the method:
SGF was prepared by dissolving sodium chloride (0.2 g) in 50 mL of water. A volume of 0.7 mL of 10 M HCl was added to adjust the pH of the solution to 1.2 and the volume made up to 100 mL with water. […] SIF was prepared by dissolving monobasic potassium phosphate (0.68 g) in 50 mL of water and adjusting the pH to 6.8 with 1 M NaOH. The volume was subsequently made up to 100 mL with water. 200 mg porcine pancreatin (P1625, Sigma Aldrich) was gently dissolved into 20 mL preheated (37 °C) solution (10 g/L) immediately prior to the incubation.
The incubation was performed at 37 °C with gentle shaking. […] After the last timepoint, the sampling plate was mixed for 10 min on a shaking table and centrifuged 10 min at 2200 g. 70 µL resulting supernatant was diluted with 150 µL water, mixed and centrifugated before analysis by liquid chromatography high resolution mass spectrometry. […] Percent remaining at each timepoint was calculated relative to timepoint zero based on absolute peak areas.
Compounds with a SIF stability (after 4 h) above 70% are considered highly SIF stable.

Molecules are shown by their SMILES. *1 amine or outer side, *2 acyl side, *3 side chain or, on linkers, in order; H or OH if unused. Where a SMILES comes first, the peptide text is derived from it. Bridges are numbered along the chain shown (N, C = ends). [ ]: non-standard residue; d: D form. 2Nal = N[C@@H](Cc1ccc2ccccc2c1)C(=O)O; AEF = NCCOc1ccc(C[C@H](N)C(=O)O)cc1; X1 = O=C(Cc1ccc(CN[*:1])cc1)[*:2]; 3Pal = N[C@@H](Cc1cccnc1)C(=O)O; Cit = NC(=O)NCCC[C@H](N)C(=O)O; αMeL = CC(C)C[C@](C)(N)C(=O)O; Dab = NCC[C@H](N)C(=O)O

Results on eight molecules are retold here after patent EP4471049A1 (Zealand Pharma A/S, priority 2023, dated 2024).

As to `CNC(=O)[C@H](Cc1cccnc1)NC(=O)[C@H](CCN)NC(=O)[C@@H]1CCC(=O)NCc2ccc(cc2)CC(=O)N[C@@H](CO)C(=O)N[C@H]2CCC(=O)NCC[C@H](NC(=O)[C@H](CCC(=O)N(C)C)NC(=O)[C@H](Cc3c[nH]c4ccccc34)NC2=O)C(=O)N[C@@H](Cc2ccc(OCCN)cc2)C(=O)N[C@@H](Cc2ccc3ccccc3c2)C(=O)N[C@@](C)(CC(C)C)C(=O)N1` [Compound 30, [4-Aminomethyl-phenylacetyl](1c)*SE(2c)W[Q(2Me)][Dab](2c)[Y(2-aminoethoxy)][2-Nal][2-Me-Leu]E(1c)[Dab][3-(3-Pyridyl)-Ala]-[NHMe]] ([X1]SEWE(NMe2)[Dab][AEF][2Nal][αMeL]E[Dab][3Pal]-NHMe; lactam 3-6, N-10), in data set [1], the “% displacement (hIL-23R binding)” value is recorded as 104% and the IC50 is 0.018 nM. In addition, the fraction remaining at 4 h, 10 µM in data set [2] was 94%.
Consider `CNC(=O)CC[C@@H]1NC(=O)[C@H](Cc2c[nH]c3ccccc23)NC(=O)[C@@H]2CCC(=O)NCC[C@H](NC1=O)C(=O)N[C@@H](Cc1ccc(OCCN)cc1)C(=O)N[C@@H](Cc1ccc3ccccc3c1)C(=O)N[C@@](C)(CC(C)C)C(=O)N[C@H](C(=O)N[C@@H](CCN)C(=O)N[C@@H](Cc1cccnc1)C(=O)NC)CCC(=O)NCc1ccc(cc1)CC(=O)N[C@@H](CO)C(=O)N2` [Compound 29, [4-Aminomethyl-phenylacetyl](1c)*SE(2c)W[Q(Me)][Dab](2c)[Y(2-aminoethoxy)][2-Nal][2-Me-Leu]E(1c)[Dab][3-(3-Pyridyl)-Ala]-[NHMe]] ([X1]SEWE(NHMe)[Dab][AEF][2Nal][αMeL]E[Dab][3Pal]-NHMe; lactam 3-6, N-10), for which the “% displacement (hIL-23R binding)” value in data set [1] was determined as 96%. In data set [2], the share remaining at 4 h, 10 µM is 92%.
Turning to `CNC(=O)[C@H](Cc1cccnc1)NC(=O)[C@H](CCN)NC(=O)[C@@H]1CCC(=O)NCc2ccc(cc2)CC(=O)N[C@@H](CO)C(=O)N[C@H]2CCC(=O)NCC[C@H](NC(=O)[C@H](CCCNC(N)=O)NC(=O)[C@H](Cc3c[nH]c4ccccc34)NC2=O)C(=O)N[C@@H](Cc2ccc(OCCN)cc2)C(=O)N[C@@H](Cc2ccc3ccccc3c2)C(=O)N[C@@](C)(CC(C)C)C(=O)N1` [Compound 26, [4-Aminomethyl-phenylacetyl](1c)*SE(2c)W[Cit][Dab](2c)[Y(2-aminoethoxy)][2-Nal][2-Me-Leu]E(1c)[Dab][3-(3-Pyridyl)-Ala]-[NHMe]] ([X1]SEW[Cit][Dab][AEF][2Nal][αMeL]E[Dab][3Pal]-NHMe; lactam 3-6, N-10), in data set [1], half-maximal inhibition (IC50) required 0.015 nM and the Emax came to 95%. The share remaining at 4 h, 10 µM in data set [2] was 91%.
`CNC(=O)[C@H](Cc1cccnc1)NC(=O)[C@H](CCN)NC(=O)[C@@H]1CCC(=O)NCc2ccc(cc2)CC(=O)N[C@@H](Cc2ccccc2)C(=O)N[C@H]2CCC(=O)NCC[C@H](NC(=O)[C@H](CCC(N)=O)NC(=O)[C@H](Cc3c[nH]c4ccccc34)NC2=O)C(=O)N[C@@H](Cc2ccc(OCCN)cc2)C(=O)N[C@@H](Cc2ccc3ccccc3c2)C(=O)N[C@@](C)(CC(C)C)C(=O)N1` [Compound 21, [4-Aminomethyl-phenylacetyl](1c)*FE(2c)WQ[Dab](2c)[Y(2-aminoethoxy)][2-Nal][2-Me-Leu]E(1c)[Dab][3-(3-Pyridyl)-Ala]-[NHMe]] ([X1]FEWQ[Dab][AEF][2Nal][αMeL]E[Dab][3Pal]-NHMe; lactam 3-6, N-10): in data set [1], it took 0.014 nM to reach half-maximal inhibition (IC50) and the Emax amounted to 95%. For the same molecule, in data set [2], the amount remaining at 1 h, 10 µM is 53%.
For `CNC(=O)[C@H](Cc1cccnc1)NC(=O)[C@H](CCN)NC(=O)[C@@H]1CCC(=O)NCc2ccc(cc2)CC(=O)N[C@@H](C)C(=O)N[C@H]2CCC(=O)NCC[C@H](NC(=O)[C@H](CCC(N)=O)NC(=O)[C@H](Cc3c[nH]c4ccccc34)NC2=O)C(=O)N[C@@H](Cc2ccc(OCCN)cc2)C(=O)N[C@@H](Cc2ccc3ccccc3c2)C(=O)N[C@@](C)(CC(C)C)C(=O)N1` [Compound 20, [4-Aminomethyl-phenylacetyl](1c)*AE(2c)WQ[Dab](2c)[Y(2-aminoethoxy)][2-Nal][2-Me-Leu]E(1c)[Dab][3-(3-Pyridyl)-Ala]-[NHMe]], in data set [1], the “% displacement (hIL-23R binding)” value amounted to 97% and the IC50 was 0.012 nM. Also, in data set [2], the fraction remaining at 1 h, 10 µM is 109% and the fraction remaining at 4 h, 10 µM is 90%.
As to `CNC(=O)[C@H](Cc1cccnc1)NC(=O)[C@H](CCN)NC(=O)[C@@H]1CCC(=O)NCc2ccc(cc2)CC(=O)N[C@@H](C)C(=O)N[C@H]2CCC(=O)NCC[C@H](NC(=O)[C@H](CCC(N)=O)NC(=O)[C@H](Cc3c[nH]c4ccccc34)NC2=O)C(=O)N[C@@H](CCc2ccccc2)C(=O)N[C@@H](Cc2ccc3ccccc3c2)C(=O)NC(C)(C)C(=O)N1` [Compound 41, [4-Aminomethyl-phenylacetyl](1c)*AE(2c)WQ[Dab](2c)[hPhe][2-Nal][Aib]E(1c)[Dab][3-(3-Pyridyl)-Ala]-[NHMe]], in data set [1], the “% displacement (hIL-23R binding)” value stood at 104% and it took 0.28 nM to reach half-maximal inhibition (IC50). Further, in data set [2], the share remaining at 1 h, 10 µM was 100% and the share remaining at 4 h, 10 µM was 95%.
In the case of `CSCC[C@H](NC(=O)[C@@H]1CSCC(=O)CSC[C@H](NC(=O)[C@@H](N)CCC(=O)O)C(=O)N[C@@H](Cc2c[nH]c3ccccc23)C(=O)N[C@@H](CC(C)C)C(=O)N[C@H]2CSCC(=O)CSC[C@H](NC(=O)[C@H](CC(N)=O)NC(=O)[C@H](CCCNC(=N)N)NC(=O)[C@H](Cc3ccc(O)cc3)NC(=O)[C@H](Cc3ccc(O)cc3)NC2=O)C(=O)N[C@@H](CC(N)=O)C(=O)N1)C(N)=O` (single isomer, unassigned) [I4 (isomer 3), H-EC(4a)WLC(5a)YYRNC(5a)NC(4a)M-[NH2], reference compound], in data set [2], the “SIF (% remaining 1 h)” value was 0% and the “SIF (% remaining 4 h)” value is reported as 0%.
As for `CC(C)C[C@@H]1NC(=O)[C@H](Cc2c[nH]c3ccccc23)NC(=O)[C@H](Cc2c[nH]c3ccccc23)NC(=O)[C@@H]2CSCC(=O)CSC[C@H](NC(=O)[C@H]([C@@H](C)O)NC(=O)[C@@H](NC(=O)CN)CSCC(=O)CSC[C@@H](C(=O)N[C@@H](CO)C(N)=O)NC1=O)C(=O)N[C@@H](Cc1c[nH]c3ccccc13)C(=O)N[C@@H](CCC(=O)O)C(=O)N2` (single isomer, unassigned) [I1 (isomer 3), H-GC(1a)TC(2a)WEC(2a)WWLC(1a)S-[NH2], reference compound], in data set [2], the “SIF (% remaining 1 h)” value was 0% and the “SIF (% remaining 4 h)” value was 0%.

As a reminder, the IC50 is the concentration that inhibits the measured activity by half. Read a low IC50 as higher potency.
